PMC5614982, “Impact of Gastric H^+/K^+-ATPase rs2733743 on the Intragastric pH-Values of Dexlansoprazole Injection in Chinese Subjects” (Frontiers in Pharmacology, 2017)
Several values for one entry are separate records, joined by “and”; a condition that tells them apart may be missing. Equal values may be shown once.

Test system: intragastric pH
Assay: 24-h intragastric pH monitoring after single intravenous dexlansoprazole in healthy Chinese subjects
Type: in vivo, human
Method: Dexlansoprazole injection (30 mg per vial) used in the PK and PD study was manufactured by Nanjing Yoko Pharma Co., Ltd. (Nanjing, China). Subjects received an intravenous infusion of 20 or 30 mg dexlansoprazole injection in sterile saline solution (100 mL/h, 60 min). The study drug was administrated with an infusing pump (SA213, Lifepum, Beijing, China) and given through an intravenous catheter in the antecubital vein opposite to the one from which blood samples were taken.
An ambulatory pH recorder (Orion II, MMS, USA) with a disposable pH catheter (VersaFlex, MMS, USA) was used to monitor intragastric pH. The electrode was placed in water for at least 10 min and then calibrated using standard buffer solutions (pH 1.07 and 7.01) before intubation. Both calibration and intubation processes were conducted under the guidance of MMS Virtual Instructor Program. The catheter, trans nasally placed 10 cm under the lower esophageal sphincter, was identified by a sharp decrease in pH (Wang et al., [2010], [2011]). Subjects were intubated on baseline and the day of dosing at about 7:30 a.m., and the intragastric pH data were recorded continuously for 24 h from 8:00 a.m. Intragastric pH was sampled every second, and the data were stored in a MMS Database program (MMS, USA). The PD parameters including Median (pH), Mean (pH), TpH≥3 (%), TpH≥4 (%), TpH≥6 (%), TpH≥6, and AUC^pH−t were analyzed by the MMS Database program.
Median (pH) and mean (pH) were well-investigated in most studies, and the percentage time of pH ≥ 4 (or pH ≥ 4 holding time ratio) was the benchmark for predicting clinical efficacy of PPIs in treating acid-related diseases (Metz et al., [2009]). Novel parameter TpH≥6 (time to first gastric pH ≥ 6, min) and AUCτ 1-τ 2pH-t (area under pH-time curve from τ1 to τ2, pH·s) were defined to evaluate the velocity and extent of pharmacodynamics with more accuracy. All parameters were calculated and compared according to time periods of 0–24, 0–4, 4–10, 10–14, and 14–24 h post dosing.
The parameter AUCτ 1-τ 2pH-t was calculated as follows:
Where t represented the time duration measured by seconds, AUCτ 1-τ 210-t was the area between the pH line = 10 and the pH-time curve, which was generated by the MMS software.
Baseline-adjusted PD parameters were calculated as follows: for example, ΔAUC^pH−t = AUC^pH−t − AUC^pH−tbaseline, ΔMean (pH) = Mean (pH) − Mean (pH)^baseline, and ΔMedian (pH) = Median (pH) − Median (pH)^baseline.

With Cc1c(OCC(F)(F)F)ccnc1C[S@@+]([O-])c1nc2ccccc2[nH]1 [dexlansoprazole] the “time to first gastric pH ≥ 6 (TpH≥6)” value (20 mg group) was 76 (± 29) min and 76 ± 29 min, the “Mean (pH)” value (20 mg iv, 0–4 h) was 4.3 ± 1.5 pH and the “Median (pH)” value (20 mg iv, 0–4 h) was 4.6 ± 2.1 pH. The “TpH≥3(%)” value (20 mg iv, 0–4 h) was 57.5 ± 22.1 %, the “TpH≥4(%)” value (20 mg iv, 0–4 h) was 46.5 ± 26.3 % and the “TpH≥6(%)” value (20 mg iv, 0–4 h) was 33.2 ± 29.4 %. The “ΔMean (pH)” value (20 mg iv, 0–4 h) was 2.1 ± 1.1 pH, the “ΔMedian (pH)” value (20 mg iv, 0–4 h) was 2.5 ± 1.9 pH and the “ΔTpH≥3(%)” value (20 mg iv, 0–4 h) was 47.1 ± 20.6%. For the same molecule, the “ΔTpH≥4 (%)” value (20 mg iv, 0–4 h) was 39.0 ± 22.3 %, the “ΔTpH≥6(%)” value (20 mg iv, 0–4 h) was 27.6 ± 24.2 % and the “Mean (pH)” value (20 mg iv, 0–24 h) was 4.9 ± 1.2 pH. For the same molecule, the “Median (pH)” value (20 mg iv, 0–24 h) was 4.9 ± 1.5 pH, the “TpH≥3(%)” value (20 mg iv, 0–24 h) was 68.5 ± 20.9 % and the “TpH≥4(%)” value (20 mg iv, 0–24 h) was 60.4 ± 22.2 %. For the same molecule, the “TpH≥6(%)” value (20 mg iv, 0–24 h) was 40.1 ± 21.3 %, the “ΔMean (pH)” value (20 mg iv, 0–24 h) was 2.4 ± 1.0 pH and the “ΔMedian (pH)” value (20 mg iv, 0–24 h) was 3.1 ± 1.5 pH. For the same molecule, the “ΔTpH≥3(%)” value (20 mg iv, 0–24 h) was 44.5 ± 19.0 %, the “ΔTpH≥4 (%)” value (20 mg iv, 0–24 h) was 45.0 ± 20.7 % and the “ΔTpH≥6(%)” value (20 mg iv, 0–24 h) was 33.7 ± 18.8 %. The “Mean (pH)” value (20 mg iv, 4–10 h) was 6.2 ± 1.4 pH, the “Median (pH)” value (20 mg iv, 4–10 h) was 6.3 ± 1.6 pH and the “TpH≥3(%)” value (20 mg iv, 4–10 h) was 89.4 ± 23.1%. For the same molecule, the “TpH≥4(%)” value (20 mg iv, 4–10 h) was 89.0 ± 22.1%, the “TpH≥6(%)” value (20 mg iv, 4–10 h) was 64.1 ± 31.0 % and the “ΔMean (pH)” value (20 mg iv, 4–10 h) was 3.3 ± 1.4 pH. For the same molecule, the “ΔMedian (pH)” value (20 mg iv, 4–10 h) was 3.6 ± 1.7 pH, the “ΔTpH≥3(%)” value (20 mg iv, 4–10 h) was 51.8 ± 29.6% and the “ΔTpH≥4 (%)” value (20 mg iv, 4–10 h) was 65.8 ± 26.9%. The “ΔTpH≥6(%)” value (20 mg iv, 4–10 h) was 54.9 ± 32.2 %, the “Mean (pH)” value (20 mg iv, 10–14 h) was 6.5 ± 1.6 pH and the “Median (pH)” value (20 mg iv, 10–14 h) was 6.6 ± 1.6 pH. For the same molecule, the “TpH≥3(%)” value (20 mg iv, 10–14 h) was 92.7 ± 18.1%, the “TpH≥4(%)” value (20 mg iv, 10–14 h) was 88.4 ± 22.7% and the “TpH≥6(%)” value (20 mg iv, 10–14 h) was 70.9 ± 35.5%. The “ΔMean (pH)” value (20 mg iv, 10–14 h) was 3.3 ± 1.4 pH, the “ΔMedian (pH)” value (20 mg iv, 10–14 h) was 3.7 ± 1.5 pH and the “ΔTpH≥3(%)” value (20 mg iv, 10–14 h) was 43.8 ± 25.3%. The “ΔTpH≥4 (%)” value (20 mg iv, 10–14 h) was 55.5 ± 26.0%, the “ΔTpH≥6(%)” value (20 mg iv, 10–14 h) was 63.7 ± 34.3% and the “Mean (pH)” value (20 mg iv, 14–24 h) was 3.6 ± 1.3 pH. For the same molecule, the “Median (pH)” value (20 mg iv, 14–24 h) was 3.2 ± 1.4 pH, the “TpH≥3(%)” value (20 mg iv, 14–24 h) was 48.7 ± 30.8 % and the “TpH≥4(%)” value (20 mg iv, 14–24 h) was 37.6 ± 31.3 %. For the same molecule, the “TpH≥6(%)” value (20 mg iv, 14–24 h) was 16.3 ± 19.3 %, the “ΔMean (pH)” value (20 mg iv, 14–24 h) was 1.6 ± 1.1 pH and the “ΔMedian (pH)” value (20 mg iv, 14–24 h) was 1.5 ± 1.3 pH. For the same molecule, the “ΔTpH≥3(%)” value (20 mg iv, 14–24 h) was 38.8 ± 27.8 %, the “ΔTpH≥4 (%)” value (20 mg iv, 14–24 h) was 31.2 ± 28.2 % and the “ΔTpH≥6(%)” value (20 mg iv, 14–24 h) was 12.0 ± 14.0 %. The “time to first gastric pH ≥ 6 (TpH≥6)” value (30 mg group) was 58 (± 25) min and 58 ± 25 min, the “Mean (pH)” value (30 mg iv, 0–4 h) was 5.5 ± 1.5 pH and the “Median (pH)” value (30 mg iv, 0–4 h) was 6.1 ± 2.0 pH. For the same molecule, the “TpH≥3(%)” value (30 mg iv, 0–4 h) was 72.3 ± 20.8%, the “TpH≥4(%)” value (30 mg iv, 0–4 h) was 66.5 ± 23.4% and the “TpH≥6(%)” value (30 mg iv, 0–4 h) was 54.6 ± 29.2%. The “ΔMean (pH)” value (30 mg iv, 0–4 h) was 3.3 ± 1.1 pH, the “ΔMedian (pH)” value (30 mg iv, 0–4 h) was 4.1 ± 1.9 pH and the “ΔTpH≥3(%)” value (30 mg iv, 0–4 h) was 57.5 ± 22.2%. For the same molecule, the “ΔTpH≥4 (%)” value (30 mg iv, 0–4 h) was 56.6 ± 19.6%, the “ΔTpH≥6(%)” value (30 mg iv, 0–4 h) was 50.7 ± 26.1% and the “Mean (pH)” value (30 mg iv, 0–24 h) was 6.1 ± 1.2 pH. The “Median (pH)” value (30 mg iv, 0–24 h) was 6.4 ± 1.4 pH, the “TpH≥3(%)” value (30 mg iv, 0–24 h) was 85.1 ± 15.7% and the “TpH≥4(%)” value (30 mg iv, 0–24 h) was 79.8 ± 19.0%. For the same molecule, the “TpH≥6(%)” value (30 mg iv, 0–24 h) was 64.2 ± 21.0%, the “ΔMean (pH)” value (30 mg iv, 0–24 h) was 3.4 ± 1.1 pH and the “ΔMedian (pH)” value (30 mg iv, 0–24 h) was 4.3 ± 1.3 pH. For the same molecule, the “ΔTpH≥3(%)” value (30 mg iv, 0–24 h) was 58.6 ± 18.5%, the “ΔTpH≥4 (%)” value (30 mg iv, 0–24 h) was 62.8 ± 20.3% and the “ΔTpH≥6(%)” value (30 mg iv, 0–24 h) was 56.6 ± 18.8%. The “Mean (pH)” value (30 mg iv, 4–10 h) was 6.9 ± 1.0 pH, the “Median (pH)” value (30 mg iv, 4–10 h) was 7.1 ± 0.9 pH and the “TpH≥3(%)” value (30 mg iv, 4–10 h) was 96.8 ± 7.6%. For the same molecule, the “TpH≥4(%)” value (30 mg iv, 4–10 h) was 94.5 ± 11.9%, the “TpH≥6(%)” value (30 mg iv, 4–10 h) was 83.2 ± 22.3% and the “ΔMean (pH)” value (30 mg iv, 4–10 h) was 4.2 ± 1.2 pH. For the same molecule, the “ΔMedian (pH)” value (30 mg iv, 4–10 h) was 4.6 ± 1.2 pH, the “ΔTpH≥3(%)” value (30 mg iv, 4–10 h) was 60.4 ± 21.3% and the “ΔTpH≥4 (%)” value (30 mg iv, 4–10 h) was 75.7 ± 19.2%. For the same molecule, the “ΔTpH≥6(%)” value (30 mg iv, 4–10 h) was 80.3 ± 22.3%, the “Mean (pH)” value (30 mg iv, 10–14 h) was 7.2 ± 1.2 pH and the “Median (pH)” value (30 mg iv, 10–14 h) was 7.3 ± 1.3 pH. The “TpH≥3(%)” value (30 mg iv, 10–14 h) was 96.8 ± 9.5%, the “TpH≥4(%)” value (30 mg iv, 10–14 h) was 95.0 ± 12.9% and the “TpH≥6(%)” value (30 mg iv, 10–14 h) was 84.5 ± 24.3%. The “ΔMean (pH)” value (30 mg iv, 10–14 h) was 4.2 ± 1.5 pH, the “ΔMedian (pH)” value (30 mg iv, 10–14 h) was 4.5 ± 1.7 pH and the “ΔTpH≥3(%)” value (30 mg iv, 10–14 h) was 54.1 ± 28.5%. For the same molecule, the “ΔTpH≥4 (%)” value (30 mg iv, 10–14 h) was 70.6 ± 26.4%, the “ΔTpH≥6(%)” value (30 mg iv, 10–14 h) was 82.1 ± 23.6% and the “Mean (pH)” value (30 mg iv, 14–24 h) was 5.5 ± 1.5 pH. The “Median (pH)” value (30 mg iv, 14–24 h) was 5.3 ± 1.9 pH, the “TpH≥3(%)” value (30 mg iv, 14–24 h) was 78.9 ± 27.7% and the “TpH≥4(%)” value (30 mg iv, 14–24 h) was 70.6 ± 31.1%.
